The AC50 is the concentration at which the activity in the assay is half-maximal. For orientation: EC50 means the concentration needed to bring the measured effect to its halfway point. What is called IC50 is the concentration that gives 50% inhibition.

Activity calls are given as the source filed them. Bounds are passed on as bounds.

We go through eight compounds from ChEMBL document CHEMBL1201862, “PubChem BioAssay data set” (2004).

The nature of test [1]: rescue of ΔF508 CFTR function, airway epithelium – human bronchial epithelial cells, plate reader, cherry-pick, two tests, dose response (AID 743267). The test is classed as functional, cell-based.
A short description of test [2]: DRD fibroblast viability loss – cell-based, non-viral oncogenic, luminescence, dose response (AID 1934). In kind it is functional. The note with it: Homo sapiens.
The test system of test [3] is BJ. Nature of the test: BJ-TERT-LT-ST fibroblast viability loss – cell-based, RAS-independent, luminescence, dose response (AID 1935).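 Further: BJ fibroblasts immortalized with TERT plus LT and ST oncogenes.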 In kind it is functional. The note with it: Homo sapiens.
For test [4], the system named is BJ. Nature of the test: cells. The test is classed as functional, cell-based. The note with it: Homo sapiens.
Test [5] deals with BJ. The experiment in a line: BJ-TERT fibroblast viability loss – cell-based, RAS-independent, luminescence, dose response (AID 1933). The test is classed as functional. The note with it: Homo sapiens.
The target in test [6] is T1, NAD-dependent protein deacylase sirtuin-5, mitochondrial (Homo sapiens, UniProt Q9NXA8). Nature of the test: sirtuin-5 deacylation blockers, concentration series – biochemical, fluorescence imaging, cherry-pick, set 5, dose response (AID 720591).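 Further: desuccinylation of succinyl peptide AMC substrate read as fluorescence after trypsin release; potency of inhibitors that lower fluorescence and may act on trypsin instead.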
Another test addresses Kallikrein-7 (Homo sapiens, UniProt P49862). Nature of the test: Fluorescence Intensity-based biochemical primary high throughput dose response assay to identify activators of kallikrein-7 (K7) zymogen.
Test [7] deals with Protein disulfide-isomerase (Homo sapiens, UniProt P07237). Nature of the test: inhibition of PDI-mediated insulin reduction – biochemical, turbidity, dry powder samples, set 2, confirmation (AID 652146).
Test [8] can be described thus: loss of viability in hepatoma HepG2 cells – cell-based, ATP luminescence, dry powder, cytotoxicity control, dose response (AID 652118). The test is classed as functional.
Test [9] concerns the target C-X-C chemokine receptor type 4 (Homo sapiens, UniProt P61073). The experiment in a line: SAR analysis of small molecule antagonists of the CXCR6 receptor using a CXCR4 receptor luminescent beta-arrestin counterscreen. In kind it is functional. A general note: The purpose of a counterscreen is to sort out artefacts and off-target activity.
In test [10] the target is C-C chemokine receptor type 6 (Homo sapiens, UniProt P51684). Nature of the test: SAR analysis of small molecule antagonists of the CXCR6 receptor using a CCR6 receptor luminescent beta-arrestin counterscreen. In kind it is functional.
A short description of test [11]: Late stage counterscreen for inhibitors of Trypanosoma brucei methionyl tRNA synthetase (MetRS): Luminescence-based cell-based high throughput dose response assay to identify compounds that are cytotoxic to Jurkat human T lymphocyte cells. In kind it is functional.
In test [12] the target is Potassium channel subfamily K member 3 (Homo sapiens, UniProt O14649). Nature of the test: inhibition of human KCNK3 channel flux – CHO cells, FluxOR thallium flux, SAR follow-up (AID 652212). In kind it is functional.
Test [13] addresses Potassium channel subfamily K member 9 (Homo sapiens, UniProt Q9NPC2). Nature of the test: KCNK9 flux blockade, concentration-response – cell-based, FluxOR thallium flux, selectivity assay for TASK1 inhibitor project, SAR follow-up (AID 652211).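 Further: potency is for inhibitors of the channel.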 The test is classed as functional.
For test [14], the target named is T1, NAD-dependent protein deacylase sirtuin-5, mitochondrial. The experiment in a line: blockers of sirtuin-5 peptide desuccinylation – biochemical, fluorescence imaging, cherry-pick, set 6, dose response (AID 720597).

T1 sequence (Q9NXA8 whole entry): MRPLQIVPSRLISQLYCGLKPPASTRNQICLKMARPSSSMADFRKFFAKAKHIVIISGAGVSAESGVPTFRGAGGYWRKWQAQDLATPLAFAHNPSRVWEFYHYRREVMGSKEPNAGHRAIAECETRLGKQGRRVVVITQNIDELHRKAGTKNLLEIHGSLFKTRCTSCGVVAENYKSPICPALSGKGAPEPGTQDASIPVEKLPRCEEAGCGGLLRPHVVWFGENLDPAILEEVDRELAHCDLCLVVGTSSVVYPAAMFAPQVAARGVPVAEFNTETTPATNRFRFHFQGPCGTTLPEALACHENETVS
Protein disulfide-isomerase, sequence (P07237 whole entry): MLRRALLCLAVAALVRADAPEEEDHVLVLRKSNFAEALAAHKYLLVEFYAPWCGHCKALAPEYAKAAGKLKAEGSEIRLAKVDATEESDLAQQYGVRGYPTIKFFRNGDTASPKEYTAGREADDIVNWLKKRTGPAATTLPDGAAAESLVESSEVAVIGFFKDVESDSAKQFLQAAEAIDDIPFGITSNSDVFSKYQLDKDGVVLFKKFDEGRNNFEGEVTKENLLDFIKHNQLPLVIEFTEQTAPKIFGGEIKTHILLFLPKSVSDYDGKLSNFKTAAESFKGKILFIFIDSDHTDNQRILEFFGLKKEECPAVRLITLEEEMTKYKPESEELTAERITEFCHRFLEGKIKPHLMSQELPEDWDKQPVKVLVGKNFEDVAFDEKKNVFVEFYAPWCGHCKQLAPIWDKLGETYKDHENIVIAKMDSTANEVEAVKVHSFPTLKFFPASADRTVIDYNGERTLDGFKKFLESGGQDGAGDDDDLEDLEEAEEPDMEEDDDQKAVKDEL
Kallikrein-7, sequence (P49862 whole entry): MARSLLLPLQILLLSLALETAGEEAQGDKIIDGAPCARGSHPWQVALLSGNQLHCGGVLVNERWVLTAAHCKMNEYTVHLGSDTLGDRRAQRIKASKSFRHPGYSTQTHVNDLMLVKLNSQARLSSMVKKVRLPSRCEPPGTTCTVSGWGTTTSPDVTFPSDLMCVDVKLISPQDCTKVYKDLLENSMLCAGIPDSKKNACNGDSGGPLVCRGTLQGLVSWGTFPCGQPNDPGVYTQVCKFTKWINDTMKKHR
C-X-C chemokine receptor type 4, sequence (P61073 whole entry): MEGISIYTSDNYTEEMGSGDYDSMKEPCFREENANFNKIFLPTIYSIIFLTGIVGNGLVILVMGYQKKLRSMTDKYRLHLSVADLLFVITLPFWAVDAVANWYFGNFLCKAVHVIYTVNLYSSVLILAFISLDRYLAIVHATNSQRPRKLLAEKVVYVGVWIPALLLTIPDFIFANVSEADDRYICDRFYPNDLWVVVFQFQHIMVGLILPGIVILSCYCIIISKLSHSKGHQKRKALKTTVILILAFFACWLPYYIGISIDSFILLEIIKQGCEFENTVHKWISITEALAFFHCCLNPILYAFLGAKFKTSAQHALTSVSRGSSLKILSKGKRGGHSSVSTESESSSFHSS
Potassium channel subfamily K member 9, sequence (Q9NPC2 whole entry): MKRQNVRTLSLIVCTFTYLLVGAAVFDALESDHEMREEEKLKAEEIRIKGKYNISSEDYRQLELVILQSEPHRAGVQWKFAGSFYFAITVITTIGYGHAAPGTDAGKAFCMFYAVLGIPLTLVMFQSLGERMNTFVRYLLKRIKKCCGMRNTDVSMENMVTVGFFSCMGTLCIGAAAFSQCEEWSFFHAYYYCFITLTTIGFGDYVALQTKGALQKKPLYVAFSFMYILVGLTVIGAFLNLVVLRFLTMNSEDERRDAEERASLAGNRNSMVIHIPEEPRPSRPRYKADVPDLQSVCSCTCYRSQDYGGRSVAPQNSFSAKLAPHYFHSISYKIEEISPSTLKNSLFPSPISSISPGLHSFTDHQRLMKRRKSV
Potassium channel subfamily K member 3, sequence (O14649 whole entry): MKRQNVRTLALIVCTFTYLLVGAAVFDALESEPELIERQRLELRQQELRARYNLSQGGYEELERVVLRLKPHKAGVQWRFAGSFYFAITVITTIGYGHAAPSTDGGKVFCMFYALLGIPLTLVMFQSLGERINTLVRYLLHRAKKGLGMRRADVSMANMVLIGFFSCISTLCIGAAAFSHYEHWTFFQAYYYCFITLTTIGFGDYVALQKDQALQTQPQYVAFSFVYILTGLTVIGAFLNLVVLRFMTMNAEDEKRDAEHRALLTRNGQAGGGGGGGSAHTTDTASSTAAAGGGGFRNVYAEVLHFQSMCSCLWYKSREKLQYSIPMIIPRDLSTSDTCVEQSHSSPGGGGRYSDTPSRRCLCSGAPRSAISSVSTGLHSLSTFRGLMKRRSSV
C-C chemokine receptor type 6, sequence (P51684 whole entry): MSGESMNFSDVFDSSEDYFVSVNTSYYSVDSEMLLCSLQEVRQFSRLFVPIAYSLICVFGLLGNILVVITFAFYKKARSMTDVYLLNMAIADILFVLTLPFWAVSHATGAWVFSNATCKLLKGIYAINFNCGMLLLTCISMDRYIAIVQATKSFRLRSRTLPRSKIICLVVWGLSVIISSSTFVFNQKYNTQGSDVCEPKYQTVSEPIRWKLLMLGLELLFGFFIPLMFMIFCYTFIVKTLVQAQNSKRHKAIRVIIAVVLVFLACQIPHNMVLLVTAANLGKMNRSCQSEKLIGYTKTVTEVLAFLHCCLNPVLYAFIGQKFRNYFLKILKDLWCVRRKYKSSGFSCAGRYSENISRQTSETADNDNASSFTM

As for `COc1ccccc1NC1=C(C(N)=O)C(=N)C(C(=O)Nc2cccc(Cl)c2Cl)S1` (stereo not given), the AC50 in test [1] is 6.08 µM (active). Moreover, the EC50 was 4.27 µM (active) in [2], 22.3 µM (active) in the test on BJ [3], 33.3 µM (inconclusive) in the test on BJ [4] and 14.5 µM (active) in the test on BJ [5].

Turning to `COc1ccc(-c2nnn(CC(=O)N(Cc3ccco3)C(C(=O)NCC3CCCO3)c3ccco3)n2)cc1` (stereo not given), the AC50 in test [6] was > 30 µM (inactive).

For the compound `Cc1nc2ccc(NC(=O)N3CCCCC3)cc2nc1C`, the EC50 on Kallikrein-7 was 5.48 µM (active).

In the case of `CCOC(=O)C1(CCOc2ccccc2)CCN(C(=O)OC(C)(C)C)CC1`, the AC50 in test [7] is > 30 µM (inactive); in test [8] it was 44.4 µM (active).

In the case of `COc1ccccc1NC(=O)CN1C2CCCC1CC(NC(=O)c1cc(OC)c(OC)c(OC)c1)C2` (stereo not given), the IC50 in [9] and in test [10] was > 79 µM (inactive) throughout.

Turning to `O=C(NCc1nc2ccccc2[nH]1)C1=C[C@@H](c2ccc3c(c2)OCO3)C[C@@H](OCCCCO)O1`, the IC50 in [11] was > 83.3 µM (inactive).

Regarding `COc1ccccc1NC(=O)c1cccc(NC(=O)CC2CCCC2)c1`, the IC50 in [12] was 0.086 µM (active); in test [13] it was 2.63 µM (active).

Turning to `Cc1ccc(S(=O)(=O)N(C)C[C@@H]2OCCCC[C@@H](C)Oc3ccc(NS(=O)(=O)c4ccc(Cl)cc4)cc3C(=O)N([C@@H](C)CO)C[C@H]2C)cc1`, the AC50 in [14] is > 30 µM (inactive).
